Experimental data reported in patent US7473682B2, “Angiogenic peptides and uses thereof” (Ramot at Tel Aviv University Ltd., priority 2003, dated 2009).

Experiments:
[1] = system: ears of nude mice and Balb/C mice; test: In vivo angiogenesis in a mouse-ear model; conditions: for Number of blood vessels in the ears of injected mice (photographs): 10 μg peptide, subcutaneous injection into ear; for Number of blood vessels: 10 μg/ear, 5 days after inoculation; for Peptide/PBS = ratio between the No. of blood vessels in the peptide-injected ear and in the PBS-injected ear: mouse ears, contralateral ear PBS
Description: In Wivo angiogenesis in a mouse-ear model—Ear angiogenesis studies were a modification of an approach described previously (Pettersson, 2000). […] Contralateral ears were injected only with PBS. […] Two days after peptide inoculation, angiogenic effect of peptides could be observed.
Histological sections—Histological sections of the mouse-ears injected with the angiogenic peptides were performed by fixing tissues in 4% buffered formalin. Sections were embedded in paraffin blocks sectioned in 4 μm thick layers and stained with hematoxolin-eosin.

MVECs [2] = test: MVEC migration assay with synthetic peptides; assay type: cell-based; conditions: 5 hours; for Increase in MVECs migration, peptides as chemoattractants: 10 ng/ml; for MVECs migration, direct activation by peptides: 1 ng/ml
Description: MVEC migration was evaluated as described above except that MVECs from passage 3 were incubated in EBM-MV SFM. […] The presence of migratory cells was detected using the fluorescent ELISA reader at 480/520 nm (Fluostar BMG Lab Teck) as described in Example 2, hereinabove. […]

FLT-1 = test: Real time PCR gene expression in MVECs, FLT-1; assay type: cell-based; parameters: key: increased (+); non-increased (−); conditions: 1 ng/ml peptide
Description: (§1) Real Time PCR—MVECs from passage 3 were incubated for 24 hours in EBM-MV supplement-free medium (starving media). Following starvation, 1 ng/ml of synthetic peptides LT, QF, SP, TR, YR, and VL and 10 ng/ml of VEGF were added to the plates. Following 1.5 or 6 hours of incubation, total RNA was extracted using TRIsol reagent (Invitrogen Life Technologies, Carlsbad Calif., USA) and 0.8 μg of the extracted RNA was used as a template for reverse transcription (Invitrogen) using random primers (SuperScript III First-Strand Synthesis System for RT-PCR (hvitrogen, Carlsbad Calif., USA) according to the manufacturer's instructions. Resulting cDNAs were subjected to real time PCR amplification using the ABI prism 7000 Sequence Detection System (Applied Biosystems, Foster City, Calif., USA). Oligonucleotide primers were designed using Primer Express Software (Applied Biosystems, Foster City, Calif., USA) according the translated region of VEGF-A (Accession No:NM_003376), VEGF-C (Accession No:NM_005429), KDR (Accession No:NM_002253), FLT-1 (Accession No:NM_002019), HIF-α (Accession No:HSU22431), and GAPDH (Accession No:NM_002046) and are listed in Table 6, hereinbelow. Briefly, a reaction mixture of 20 μl consisting of DDW, oligonucleotide primers (500 nM), cDNA (3 μl), and SYBR Green PCR master kit (Applied Biosystems, Foster City, Calif., USA) was subjected to an amplification program of 15 seconds at 95° C., and 60 seconds at 60° C. for 40 cycles. Results were analyzed using the Sequence Detector Software Version 1 (Applied Biosystenis).
(§2) Peptides effect on gene expression in MVECs—The effect of the synthetic peptides on the expression in MVECs of selected genes (VEGF-A, VEGF-C, KDR, FLT-1 and HIF-1α) related to the VEGF pathway (a major pathway that participated in angiogenic process) was tested. Synthetic peptides were added at 1 ng/ml for 1.5 and 6 hours. After incubation with peptide, RNA was extracted from MVECs and Real Time PCR was performed. Gene expression was calculated as peptide/control (cells without peptide treatment) ratio.

KDR = test: Real time PCR gene expression in MVECs, KDR; assay type: cell-based; parameters: key: increased (+); non-increased (−); conditions: 1 ng/ml peptide
Description: as §1, §2

mouse ischemic hind limb [3] = test: Mouse ischemic hind limb model, physiological observations (ladder climbing); assay type: in vivo; parameters: key: 1 = walk and climb ... 4 = walk with difficulty, cannot climb; conditions: mean score of 10 mice, 10 μg; for Physiological score (ability to climb a ladder) Day 1: 1 = walk and climb ... 4 = walk with difficulties and cannot climb, day 1 post operation; for Physiological score (ability to climb a ladder) Day 4 / Physiological score (ability to climb a ladder) Day 7 / Physiological score (ability to climb a ladder) Day 10: scale 1-4; for Physiological score (ability to climb a ladder) Day 4: day 4 post operation; for Physiological score (ability to climb a ladder) Day 7: day 7 post operation; for Physiological score (ability to climb a ladder) Day 10: day 10 post operation
Description: (§3) Mouse ischemic hind limb model—Ischemia was created in the mouse left hind limb by ligation of the femoral artery. The right hind limb served as control. A day after the operation each of the peptides was injected into one site close to the ligation and one site distal to the ligation. Each mouse was treated with each of the peptides in a total amount of 10 μg.
Physiological observations—Ischemic mice were evaluated for their ability to climb a ladder on day 1, 4, 7, and 10-post operation. The scoring system was as follows: 1—walk and climb; 2—walk and climb with some difficulty, 3—walk and cannot climb the ladder; 4—walk with difficulties and cannot climb the ladder.

mouse ischemic hind limb [4] = test: Mouse ischemic hind limb model, blood perfusion (Laser Doppler Imager); assay type: in vivo; conditions: 14 and 19 days following peptide injection; for The blood perfusion ratio (in percentages) of the ischemic vs. control limbs, Mean: 10 μg
Description: as §3
Blood perfusion in ischemic mice—The percent of blood perfusion was measured using a Laser Doppler Imager (PeriMed, Sweden) at 14 and 19 days after peptides injections. The average percent perfusion of each limb was computed and expressed as the ischemic (left)/control (right) blood perfusion ratio.

VEGF-A = test: Real time PCR gene expression in MVECs, VEGF-A; assay type: cell-based; parameters: key: increased (+); non-increased (−); conditions: 1 ng/ml peptide
Description: as §1, §2

VEGF-C = test: Real time PCR gene expression in MVECs, VEGF-C; assay type: cell-based; parameters: key: increased (+); non-increased (−); conditions: 1 ng/ml peptide
Description: as §1, §2

MVECs [5] = test: Tube formation assay, MVECs; assay type: cell-based; conditions: for MVEC tube formation compared to untreated cells: normoxic conditions, 10 ng/ml, matrigel
Description: Tube formation assay—ECs from passage 3 or MVECs from passage 4 were harvested with trypsin and incubated for 24 hours in SFM. Twenty-four—well plates were pre-coated with 250 μl of Cultrex Basement Membrane Extract with reduced growth factors (R&D Systems, Minneapolis, Minn., USA). Five hundred microliters of medium containing 10^6 cells were transferred to the coated wells. Synthetic peptides, FGF, YR, QF, or VL were added to ECs, and VEGF, YR, QF, or VL were added to MVECs at 10 ng/ml. Plates were incubated for 24 hours at 37° C. in the presence of 5% CO2. HUVECs and MVECs were photographed under a light microscope at 20 hours and 8 hours, respectively.
Tube formation assay after and under hypoxia treatment—Tube formation assay was performed as described in Example 3, hereinabove, except that the cells were divided to 3 groups: control cells, cells after exposure to hypoxia conditions, and cells on matrigel basement that form tubes under hypoxia treatment.

Sequence	Number of blood vessels in the ears of injected mice (photographs) [1]	Number of blood vessels [1]	Peptide/PBS = ratio between the No. of blood vessels in the peptide-injected ear and in the PBS-injected ear [1]	Increase in MVECs migration, peptides as chemoattractants (MVECs [2]) [fold]	FLT-1 Expression after 1.5 hours (FLT-1)	KDR Expression after 1.5 hours (KDR)	Physiological score (ability to climb a ladder) Day 1 (mouse ischemic hind limb [3])	Physiological score (ability to climb a ladder) Day 4 (mouse ischemic hind limb [3])	Physiological score (ability to climb a ladder) Day 7 (mouse ischemic hind limb [3])	Physiological score (ability to climb a ladder) Day 10 (mouse ischemic hind limb [3])	The blood perfusion ratio (in percentages) of the ischemic vs. control limbs, Mean (mouse ischemic hind limb [4]) [percentages]	VEGF-A Expression after 1.5 hours (VEGF-A)	VEGF-C Expression after 1.5 hours (VEGF-C)	VEGF-C Expression after 6 hours (VEGF-C)	MVEC tube formation compared to untreated cells (MVECs [5])	MVECs migration, direct activation by peptides (MVECs [2]) [folds]	FLT-1 Expression after 6 hours (FLT-1)	Percent of blood perfusion ratio, ischemic/control limb (significance) (mouse ischemic hind limb [4])	VEGF-A Expression after 6 hours (VEGF-A)	KDR Expression after 6 hours (KDR)	also measured
LLADTTHHRPWT (Phage displayed peptide) [LT]	increased number of blood vessels	18	3	3.5	+	−	3.07	2.25	1.6	1.2	78.275	+	+	+	did not induce tube formation						
QPWLEQAYYSTF (Phage displayed peptide) [QF]	increased number of blood vessels	21	0.9	2.4	+	+	2.83	2	1.6	1.2	112.222	+	+	+	significant increase in tube formation	2.3	−	significant increase	−		
SAHGTSTGVPWP (Phage displayed peptide)	increased number of blood vessels	15	1	2	+	+	2.85	2.25	1.75	1.6	84.478	+	+	+	did not induce tube formation	2.1					MVEC tube formation under hypoxia (MVECs [5]; under hypoxia conditions, 18 hours): effective only in tube formation under hypoxia conditions
TLPWLEESYWRP (Phage displayed peptide) [TR]		15	5.5	2	+		3.05	2.5	1.6	1.4	86.006	+	+	+		2.6			−	+	Vascularization of mouse ear, histology sections ([1]; 10 μg, compared to control): large blood vessel formation and neovascularization
YPHIDSLGHWRR (Phage displayed peptide) [YR]	increased number of blood vessels	11	7.6	2.4	+	+	2.75	2.5	1.4	1	104.349	+			significant increase in tube formation	1.8	−	significant increase	−	−	
